From PubChem BioAssay (NCI)
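At the GI50, growth is halved. At the TGI there is no net growth.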

What was measured:
Assay in all cases: DTP human tumour cell line panel, 384-well format
RPMI-8226 leukemia = system: RPMI-8226 leukemia
NCI-H460 NSCLC = system: NCI-H460 NSCLC
NCI-H226 lung = system: NCI-H226 lung
U251 glioblastoma = system: U251 glioblastoma
HS 578T breast = system: HS 578T breast
NCI-H23 lung = system: NCI-H23 lung
CAKI-1 renal = system: CAKI-1 renal
NCI-H322M lung = system: NCI-H322M lung
SF-295 CNS = system: SF-295 CNS
ACHN renal = system: ACHN renal
BT-549 breast = system: BT-549 breast
SK-MEL-28 melanoma = system: SK-MEL-28 melanoma
SNB-19 CNS = system: SNB-19 CNS
MDA-MB-435 melanoma = system: MDA-MB-435 melanoma
MOLT-4 leukemia = system: MOLT-4 leukemia
A498 renal = system: A498 renal
T-47D breast = system: T-47D breast
HCT-116 colon = system: HCT-116 colon
SF-268 CNS = system: SF-268 CNS
NCI-H522 lung = system: NCI-H522 lung
HOP-92 NSCLC = system: HOP-92 NSCLC
SW-620 colon = system: SW-620 colon
IGROV1 ovarian = system: IGROV1 ovarian
RXF 393 renal = system: RXF 393 renal
SF-539 CNS = system: SF-539 CNS
EKVX NSCLC = system: EKVX NSCLC
A549 NSCLC = system: A549 NSCLC
OVCAR-5 ovarian = system: OVCAR-5 ovarian

With `O=C(Nc1cccc(Cl)c1)Nc1ncc(CCNc2ncnc3ccsc23)s1` the GI50 (RPMI-8226 leukemia) was 0.308 µM, the TGI (RPMI-8226 leukemia) was 11.5 µM and the GI50 (NCI-H460 NSCLC) was 0.0433 µM. It also gave a TGI (NCI-H460 NSCLC) of 10.6 µM, a GI50 (NCI-H226 lung) of 2.94 µM and a TGI (NCI-H226 lung) of 16.3 µM. It also gave a GI50 (U251 glioblastoma) of 7.52 µM, a TGI (U251 glioblastoma) of 20.7 µM and a GI50 (HS 578T breast) of 0.104 µM. For the same molecule, the TGI (HS 578T breast) was 6.01 µM, the GI50 (NCI-H23 lung) was 2.59 µM and the TGI (NCI-H23 lung) was 16 µM. The GI50 (CAKI-1 renal) was 1.15 µM, the TGI (CAKI-1 renal) was 14.1 µM and the GI50 (NCI-H322M lung) was 6.64 µM. It also gave a TGI (NCI-H322M lung) of 19.6 µM, a GI50 (SF-295 CNS) of 2.17 µM and a TGI (SF-295 CNS) of 18.1 µM. It also gave a GI50 (ACHN renal) of 1.52 µM, a TGI (ACHN renal) of 17.3 µM and a GI50 (BT-549 breast) of 1.07 µM. It also gave a TGI (BT-549 breast) of 11.4 µM, a GI50 (SK-MEL-28 melanoma) of 10.4 µM and a TGI (SK-MEL-28 melanoma) of 22.2 µM. The GI50 (SNB-19 CNS) was 11.7 µM, the TGI (SNB-19 CNS) was 24 µM and the GI50 (MDA-MB-435 melanoma) was 10 µM. For the same molecule, the TGI (MDA-MB-435 melanoma) was 21.6 µM, the GI50 (MOLT-4 leukemia) was < 0.01 µM and the GI50 (A498 renal) was 0.839 µM. It also gave a TGI (A498 renal) of 18.5 µM, a GI50 (T-47D breast) of 0.228 µM and a TGI (T-47D breast) of 2.36 µM. For the same molecule, the GI50 (HCT-116 colon) was 0.754 µM, the TGI (HCT-116 colon) was 14.5 µM and the GI50 (SF-268 CNS) was < 0.01 µM. For the same molecule, the TGI (SF-268 CNS) was 0.781 µM, the GI50 (NCI-H522 lung) was 0.356 µM and the TGI (NCI-H522 lung) was 12.1 µM. The GI50 (HOP-92 NSCLC) was 3.53 µM, the TGI (HOP-92 NSCLC) was 18.4 µM and the GI50 (SW-620 colon) was 14.6 µM. It also gave a TGI (SW-620 colon) of 27.8 µM, a GI50 (IGROV1 ovarian) of 3.39 µM and a TGI (IGROV1 ovarian) of 16 µM. For the same molecule, the GI50 (RXF 393 renal) was 0.0169 µM, the TGI (RXF 393 renal) was 2.55 µM and the GI50 (SF-539 CNS) was 0.306 µM. It also gave a TGI (SF-539 CNS) of 14.7 µM, a GI50 (EKVX NSCLC) of 1.68 µM and a TGI (EKVX NSCLC) of 16.1 µM. It also gave a GI50 (A549 NSCLC) of 0.121 µM, a TGI (A549 NSCLC) of 15.4 µM and a GI50 (OVCAR-5 ovarian) of 8.83 µM. The TGI (OVCAR-5 ovarian) was 21.2 µM.
